Measured values taken from PubChem BioAssay (NCI).
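How tested: cells in 96-well plates exposed to compound for 48 hours at five concentrations. TGI marks complete inhibition of growth.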

Key:
Experiment in all cases: NCI anticancer screen, dose series, 48 h
NCI-H226 lung = tested on: NCI-H226 lung
IGROV1 ovarian = tested on: IGROV1 ovarian
HT29 colon = tested on: HT29 colon
COLO 205 colon = tested on: COLO 205 colon
786-0 renal = tested on: 786-0 renal
NCI-H522 lung = tested on: NCI-H522 lung
CAKI-1 renal = tested on: CAKI-1 renal
SF-539 CNS = tested on: SF-539 CNS

Row | SMILES | TGI (NCI-H226 lung) | TGI (IGROV1 ovarian) | TGI (HT29 colon) | TGI (COLO 205 colon) | TGI (786-0 renal) | TGI (NCI-H522 lung) | TGI (CAKI-1 renal) | TGI (SF-539 CNS)
1 | CC(=O)N1N=C(c2ccccc2Nc2ccccc2C2=NN(C(C)=O)C(c3ccccc3)O2)OC1c1ccccc1 (configuration not stated) | > 100 µM | > 100 µM | > 100 µM | > 100 µM | > 100 µM | > 100 µM |  | 
2 | O=C(Nc1ccc(Cl)cc1Cl)c1cc2nc3ccccc3c(=O)n2c2ccccc12 |  | > 10 µM | > 10 µM |  | > 10 µM | > 10 µM | > 10 µM | > 10 µM
3 | O=C1CC(NC2CC(=O)c3c(Br)sc(Br)c32)c2c(Br)sc(Br)c21 (configuration not stated) | 34.1 µM | 8.43 µM | 8.91 µM | 8.77 µM | 2.9 µM | 3.69 µM | 9.72 µM | 
4 | O=C(Nc1ccccc1)c1cc2c(cc1Cl)SC(NNCCO)=NS2(=O)=O | > 100 µM | > 100 µM | > 100 µM | > 100 µM | > 100 µM |  | > 100 µM | > 100 µM
5 | O=[N+]([O-])c1ccc(OP(=O)(O)OCC2OC(CP(=O)(O)O)C(O)C2O)cc1 (configuration not stated) |  | > 100 µM | > 100 µM | > 100 µM | > 100 µM | > 100 µM | > 100 µM | > 100 µM
6 | CSc1ncc2c(C#N)c3ccccn3c(=O)c2n1 | > 100 µM | > 100 µM | > 100 µM | > 100 µM | > 100 µM |  | > 100 µM | > 100 µM
7 | c1csc(-c2cscc2-c2cccs2)c1 | 65.4 µM | > 100 µM | > 100 µM | > 100 µM | > 100 µM |  | > 100 µM | 51.4 µM
8 | CC(=O)OCC1=C2C(OC(=O)C(C)C)CC3(COC(C)=O)OC3/C=C\C3(C)OC3C2OC1=O (configuration not stated) | > 100 µM | > 100 µM | > 100 µM | > 100 µM | > 100 µM |  | > 100 µM | > 100 µM
9 | COC(=O)C(=O)c1cc2ccccc2n1S(=O)(=O)c1ccccc1 |  | > 100 µM | > 100 µM | > 100 µM | > 100 µM | > 100 µM | > 100 µM | > 100 µM
10 | CSC1=N/C(=C\c2ccccc2)C(=O)N1CN1CCOCC1 | > 100 µM | > 100 µM | 78.5 µM | > 100 µM | > 100 µM | > 100 µM |  | 
11 | OCCSCc1cc(Cl)cc(Cl)c1O | > 100 µM | > 100 µM | > 100 µM | > 100 µM | > 100 µM | > 100 µM | > 100 µM | 
12 | C=CCN1C(=O)/C(=C/c2ccccc2)N=C1SC1OC(COC(C)=O)C(OC(C)=O)C(OC(C)=O)C1OC(C)=O (configuration not stated) |  | 91.1 µM | > 100 µM |  | > 100 µM | 55.4 µM | 53.8 µM | 
13 | O=C1NC(=O)/C(=C/c2ccc(S(=O)(=O)N/N=C/c3ccccc3)cc2)N1 | > 100 µM | > 100 µM | > 100 µM | > 100 µM | > 100 µM |  | > 100 µM | 
14 | O=S(=O)(c1ccccc1)[C@@H]1[C@H]2C=C[C@](CS)(O2)[C@H]1S(=O)(=O)c1ccccc1 | > 100 µM | > 100 µM | > 100 µM | > 100 µM | 87.2 µM | 31.7 µM | 92.3 µM | 
15 | O=C1C=Cc2c1csc2Br |  | > 100 µM | > 100 µM | > 100 µM | > 100 µM | 38.4 µM | > 100 µM | 
16 | CCOC(=O)C(Cc1ccc2c(c1)CCC2)Cc1ccc2c(c1)CCC2 |  | > 100 µM | > 100 µM |  | > 100 µM | > 100 µM | > 100 µM | > 100 µM
17 | COc1cc(CCC(=O)O)c2cc3ccccc3cc2c1O | 78 µM | 41.1 µM | 43.8 µM | 36.2 µM | 30.4 µM | 45.1 µM | 33.8 µM | 
18 | CCCC1=NC(C(F)(F)F)(C(F)(F)F)N=C(N2CCOCC2)O1 | > 100 µM | > 100 µM | > 100 µM | > 100 µM | > 100 µM |  | > 100 µM | > 100 µM
19 | CCCC(=O)n1[nH]c(=O)n(C(C)(C)C)c1=O | > 100 µM | > 100 µM | > 100 µM | > 100 µM | > 100 µM |  | > 100 µM | 
20 | Cn1c2c(c3ccccc31)CC(=O)N1CCCC(C1)CC21OCCO1 (configuration not stated) | > 100 µM | > 100 µM | > 100 µM | > 100 µM | > 100 µM |  | > 100 µM | 
21 | Oc1ccc(NCc2cc(O)ccc2O)cc1 | 50.4 µM | 34.2 µM | 57.6 µM | 62.3 µM | 31.9 µM |  | 34.9 µM | 56.4 µM
22 | c1csc(-c2sc(-c3ccsc3)cc2Cc2ccsc2)c1 |  | > 10 µM | > 10 µM | > 10 µM | > 10 µM |  | > 10 µM | 
23 | N#Cc1nc(-c2ccccc2O)oc1N |  | > 100 µM | > 100 µM |  | > 100 µM |  | > 100 µM | 
24 | c1ccc(N=C2C(=Nc3ccccc3)N(C3CCCCC3)C(=NC3CCCCC3)N2c2ccccc2)cc1 | > 100 µM | > 100 µM | > 100 µM | > 100 µM | > 100 µM |  |  | 
25 | c1ccc2c(c1)ccc1nc3ccccn3c12 | > 100 µM | > 100 µM | > 100 µM | > 100 µM | > 100 µM |  |  | > 100 µM
